Tested on: ECL cells
Test: labelling index of ECL cells (HDC+PCNA double labelling) in oxyntic mucosa after 14 days once-daily treatment
Type: in vivo, male SPF Wistar rats
Details: rats, 25 mg/kg p.o. once daily for 14 days; compared with control group
Method: This was measured according to the following experimental protocol. 40 male SPF Wistar rats (200 g) were divided into 4 treatment groups and 2 strata. The treatment of the 20 rats in the second stratum started 2 weeks after the treatment of the first stratum. The design of the study was completely randomised double blind with individual blinding; all rats were placed in a separate cage. Animals had continuous access to water and food. Animals were treated once daily during 14 days: [table] After removal of the fundus, the stomach were rinsed with phosphate buffered saline prior to fixation with 4% formalin in Millonig buffer. After 4 hours immersion in fixative solutions at room temperature, tissue was rinsed in phosphate buffered saline (PBS), dehydrated and embedded in paraffin using the Leitz paraffin embedding station (Leitz TP 1050; Germany) dehydration module and paraffin embedding module (Leitz EG 1160; Germany). Cross sections (3 μm thick) of the oxyntic part of the stomach were made at 3 levels, each separated by a distance of 400 μm. The following indirect immunofluorescence labeling method was used: removal of paraffin and rehydratation of the sections followed by a blocking step primary antibodies: polyclonal guinea pig anti-histidine decarboxylase, 1/2000 (from Euro-Diagnostica) and monoclonal mouse anti PCNA 1/2500 (Clone PC10 from Sigma). […]

## COCCCOc1ccnc(C[S+]([O-])c2nc3ccccc3[nH]2)c1C (stereo not shown) [rebeprazole, 2-[[4-(3-methoxypropoxy)-3-methylpyridin-2-yl]methylsulfinyl]-1H-benzimidazole]
  labelling index of ECL cells, Mann-Whitney test P, treated group versus control group: 0.04

From patent US20030195240A1, “Pharmaceutical compositions comprising proton pump inhibitors and gastrin/cholecystokinin receptor ligands” (priority 2000, published 2003)
